The assay deals with T1, KMT5A (Homo sapiens, UniProt Q9NQR1).
T1 sequence (Q9NQR1 1-393): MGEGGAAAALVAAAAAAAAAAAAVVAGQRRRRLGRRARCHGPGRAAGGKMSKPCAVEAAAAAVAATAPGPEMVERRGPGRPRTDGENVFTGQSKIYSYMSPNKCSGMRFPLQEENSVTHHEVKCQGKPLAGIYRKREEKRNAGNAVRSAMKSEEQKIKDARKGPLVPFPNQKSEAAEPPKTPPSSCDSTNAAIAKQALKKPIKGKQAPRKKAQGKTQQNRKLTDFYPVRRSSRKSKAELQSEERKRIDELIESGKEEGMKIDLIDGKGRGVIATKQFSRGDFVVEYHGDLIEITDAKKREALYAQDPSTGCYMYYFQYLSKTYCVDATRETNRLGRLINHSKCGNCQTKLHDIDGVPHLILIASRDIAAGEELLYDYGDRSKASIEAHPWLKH
The experiment in a line: CETSA in intact SW480 cells, KMT5A. Further details: endogenous in cells; host or cells: SW480. It counts as cell-based. Here is the method:
For whole cell CETSA, the cells were incubated with 10/15 μM of compound 7b/8/8-N for 18 h. Then, cells were washed with cell culture medium, detached from the surface using trypsin, washed with PBS and the number of cells was determined. Cell concentration was adjusted to 3.6 × 10^7 cells/mL using in PBS with Complete (w/o EDTA, Roche) protease inhibitor. Then, cells were frozen in liquid nitrogen and thawed at 25 °C three times, before being divided in 16 aliquots. Each aliquot was heated to a defined temperature between 40 and 70 °C in a PCR cycler (16 well gradient, 55 °C ± 15). After 3 min incubation, aliquots were snap frozen in liquid nitrogen and thawed at 25 °C. Cell lysates were then centrifuged at 20,000 × g , 4 °C for 20 min. Supernatant were mixed with 5× loading buffer, heated to 70 °C for 5 min and analyzed by Western blotting essentially as previously described. For the CETSA performed with cell lysates, cells were directly harvested and lysed as described above. […]
Figure S4. […] Representative Western blots (A) and quantification (B) showing no obvious shifting melting temperatures (ΔT m) of endogenous KMT5A upon treatment with compound 7b compared to DMSO. […]
Representative Western blots (C) and quantification (D) showing no shifting melting temperatures (ΔT m) of endogenous KMT5A upon treatment with compound 8 compared to DMSO. […]

ΔTm data for 1 molecule are collected here from publication PMC12257510, “Structure-Guided Design of a KMT9 Inhibitor Prodrug with Cellular Activity” (Journal of Medicinal Chemistry, 2025).

`CCOC(=O)[C@@H](N)CCN(CCCNCCc1ccc(Oc2ccc(Cl)cc2)c(F)c1)C[C@H]1C[C@@H](n2ccc3c(NC)ncnc32)[C@H](O)[C@@H]1O` [compound 8, Ethyl (S)-2-amino-4-((3-((4-(4-chlorophenoxy)-3-fluorophenethyl)amino)propyl) (((1R,2R,3S,4R)-2,3-dihydroxy-4-(4-(methylamino)-7H-pyrrolo[2,3-d]pyrimidin-7-yl)cyclopentyl)methyl)amino)butanoate]: the ΔTm at 10 µM was -0.6 °C.

The ΔTm is the change in melting temperature against a reference sample.
